Measured values taken from US20200163857A1, “Dual Component Compositions for Teeth Whitening” (Colgate-Palmolive Company, priority 2018, published 2020).

What was measured:
[1] = pH-dependent bleaching of Lissamine green B by NaDCC
Method: Two different solutions, Solution A and Solution B, were prepared. Solution A contained 2% SAPP, 0.1% Lissamine green B dye, and 97.9% water. Solution B contained 2% tetrasodium pyrophosphate (TSPP), 0.1% Lissamine green B dye, and 97.9% water. Next, solutions with various pHs were obtained by mixing the two different solutions A and B, in different volume ratios (i.e., 1:0, 1:5, 1:1, 5:1, and 0:1). 20 mL of the resulting solutions were added to 10 mg NaDCC, and the time required to bleach away all of the Lissamine green B color was recorded.

[2] = test system: bacterial viability of stimulated saliva samples; assay: Salivary ATP bacteria viability assay (luciferase); type: cell-based; conditions: one-minute treatment; for Log10 of Viability, Mean: average of two experiments
Excerpt: In order to screen for preliminary antibacterial efficacy, a NaDCC solution was subjected to an ATP-bacteria viability test. This method determines the number of viable bacterial cells in culture based on the quantification of adenosine triphosphate (ATP) present. ATP is a product of the catabolism of glucose (glycolysis) and aerobic respiration. This essential nucleoside triphosphate powers virtually all cell functions and is used by bacteria during cell division, the synthesis of nucleic acids and proteins, the transport of macromolecules, cell signaling, and bacterial motility. Given its importance, ATP signals the presence of metabolically active cells, and therefore it may be used to quantify cell viability.
In a reaction, luciferin is converted to oxiluciferin by the luciferase enzyme in the presence of ATP and oxygen. A direct relationship exists between the light output of the reaction and the number of metabolically active cells that makes this method ideal for the rapid screening of antimicrobial agents during the development of oral care formulas to establish their potential antibacterial efficacy. A salivary ATP assay was used to evaluate the antibacterial efficacy of NaDCC-containing tablets on bacterial viability of stimulated saliva samples.
In this assay, a mouthwash solution containing 0.075% cetylpyridinium chloride (CPC), a known antibacterial agent, was used as a positive control. An NaDCC tablet containing only NaDCC and weighing 20 mg was disintegrated in two phosphate buffered saline (PBS) solutions to yield both a 500 ppm NaDCC solution and a 1000 ppm NaDCC solution. […] Lower viability translates into higher antibacterial properties. The data below in Table 4 was calculated using the Tukey Method with a 95% Confidence Interval for the mean.

| SMILES | Time to bleach ([1]; 10 mg NaDCC in 20 mL Mix Solution 1, VA:VB 1:0, pH 4.6) | Time to bleach ([1]; 10 mg NaDCC in 20 mL Mix Solution 2, VA:VB 1:5, pH 5.8) | Time to bleach ([1]; 10 mg NaDCC in 20 mL Mix Solution 3, VA:VB 1:1, pH 7.4) | Time to bleach ([1]; 10 mg NaDCC in 20 mL Mix Solution 4, VA:VB 5:1, pH 8.8) | Time to bleach ([1]; 10 mg NaDCC in 20 mL Mix Solution 5, VA:VB 0:1, pH 10.5) | Log10 of Viability, Mean ([2]; 500 ppm NaDCC in PBS) | Log10 of Viability, Mean ([2]; 1000 ppm NaDCC in PBS) | antibacterial properties compared to the 0.075% CPC solution ([2]; NaDCC solutions at both 500 ppm and 1000 ppm in PBS) | Log10 of Viability, Mean ([2]; 0.075% CPC mouthwash solution (positive control)) |
| --- | --- | --- | --- | --- | --- | --- | --- | --- | --- |
| O=c1nc(O)n(Cl)c(=O)n1Cl [NaDCC, sodium dichloroisocyanurate] | Instantaneous | 0.25 min | 8 min | 35 min | 80 min | 4.139 ± 0.001 | 3.530 ± 0.048 | statistically significant improvement |  |
| CCCCCCCCCCCCCCCC[n+]1ccccc1 [CPC, cetylpyridinium chloride, reference compound] |  |  |  |  |  |  |  |  | 5.061 ± 0.032 |
